Experimental findings from paper PMC12764611 (Nature Communications, 2025) are described below.

This assay has as its target T1, IGFBP7 (endogenous, HK-2 cells, CETSA) (Homo sapiens, UniProt Q16270).
T1 sequence (Q16270 27-282): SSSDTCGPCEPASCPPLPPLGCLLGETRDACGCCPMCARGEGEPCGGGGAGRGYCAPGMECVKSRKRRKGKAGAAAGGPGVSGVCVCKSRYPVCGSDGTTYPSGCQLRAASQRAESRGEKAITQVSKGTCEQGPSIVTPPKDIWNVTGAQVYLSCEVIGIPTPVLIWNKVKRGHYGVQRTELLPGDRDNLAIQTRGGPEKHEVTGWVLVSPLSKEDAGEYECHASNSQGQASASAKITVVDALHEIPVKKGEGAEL
Kind of assay: cellular thermal shift assay, immunoblot. To be noted: HK-2 cells with or without LA pretreatment, then lysed and heated. Type of assay: cell-based.

Take `CN1c2c(nc(N)[nH]c2=O)NC[C@@H]1CNc1ccc(C(=O)N[C@@H](CCC(=O)O)C(=O)O)cc1` [levomefolic acid]: the “cellular thermal shift assay, immunoblot” value is recorded as “analysis showing the stabilisation of IGFBP7 in vitro, with or without LA treatment”.
